These are literature values, as cited in patent publication US20050244491A1, “Fast disintegrating meloxicam tablet” (Boehringer Ingelheim International GmbH, priority 2001, published 2005).

For this data set the following is noted: in acidic or neutral medium.

With `Cc1cnc(NC(=O)C2=C(O)c3ccccc3S(=O)(=O)N2C)s1` [Meloxicam, 2H-1,2-benzothiazine-3-carboxamide, 4-hydroxy-2-methyl-N-(5-methyl-2-thiazolyl)-1,1-dioxide], the solubility entry was “low”.
